Test results published in a melting point compilation (Tetko et al.; mined from patent text by program, amines drawn as free bases though some values may be those of a salt).

Row | Compound | melting point
1 | COc1ccc(CNc2cc3c(Nc4ccc(F)c(C(F)(F)F)c4)ncnc3cn2)cc1 | 202 to 204 °C
2 | CCCCCCCCCCCCCCCCCC(=O)NC(=O)OCc1nc(C(C)C)c(Sc2cc(Cl)cc(Cl)c2)n1Cc1ccncc1 | 73 to 77 °C
3 | CCc1ncc(CCCOc2c(C)cc(C#N)cc2C)s1 | 52 to 53 °C
4 | CC1(c2ccc(Br)cc2)C(=O)Nc2cc(Cl)cc(Cl)c2C1=O (centres undefined) | 237 to 238 °C
5 | COc1ccc(C=CC(=O)O)cc1-c1cc2c(cc1OCCCCCCCC(N)=O)C(C)(C)CCC2(C)C | 132 to 134 °C
6 | O=C(CSc1nc2ccccc2s1)c1ccc2[nH]c3ncc(Cl)cc3c2c1 | 241 to 242 °C
7 | Cc1nc(-c2ccc(C(C)(C)C)cc2)sc1C(=O)O | 190 to 193 °C
8 | CCCCc1nc2cccc(COC)c2n1Cc1ccc(-c2ccccc2CO)cc1 | 126 to 127 °C
9 | CC1(C)Oc2ccc(CO)cc2[C@@H](N2CCCC2=O)[C@@H]1O (relative stereo) | 175 to 178 °C
10 | Cc1sccc1-c1nc2c3ccsc3ccn2c1N | 161 to 162 °C
11 | COC(=O)C(OCc1ccc(-c2ccc(Cl)cc2)cc1)(C(F)(F)F)C(F)(F)F | 61.5 to 62.5 °C
12 | O=C(NO)c1ccc(OCCNS(=O)(=O)c2ccc(C(=O)Nc3ccc(Cl)c(-c4ccccn4)c3)c(Cl)c2)cc1 | 138 to 139 °C
13 | CC(C)n1c(=O)nc(-c2cc3c(cc2Cl)OCO3)c2cc3c(cc21)OCO3 | 147 to 150 °C
14 | CC1SC(=O)NN=C1c1ccc2c(c1)CC(C)(C)C(=O)N2 (centres undefined) | 245 °C
15 | O=[N+]([O-])C=C(Cl)SCCCNS(=O)(=O)c1ccccc1 | 105 to 106 °C
16 | COc1ccccc1-n1c(=O)[nH]c2c(C(N)=O)nc(-c3cccc(C(=O)O)c3)nc21 | 348 to 350 °C
17 | O=S(=O)(Nc1ccc2c(OCc3coc(-c4ccc(C(F)(F)F)cc4)n3)cccc2c1)C(F)(F)F | 205 to 207 °C
18 | CCOC1CN2CCC1CC2 (centres undefined) | 96 to 98 °C
19 | CSc1ccc(C(=O)O)cc1OC1CCCC1 | 158 to 160 °C
20 | C[Si](C)(C)CCCOc1cc(Cl)c([N+](=O)[O-])cc1Cl | 45 to 48 °C
21 | CC1(C)CCC(C)(C)c2c(C=O)cc(-c3ccccc3)cc21 | 113 °C
22 | O=C(c1ccccc1)c1cnn2cccnc12 | 174 to 175 °C
23 | CC1SC(=O)NN=C1c1ccc2c(c1)C(=NNC(N)=S)C(=O)N2 (centres undefined) | 300 °C
24 | CC(C)(C)OC(=O)C(C#N)C(c1cccc2ccccc12)c1cccc2ccccc12 (centres undefined) | 156 to 157 °C
25 | Cc1cc(C)c2c(=O)[nH]c(-c3cc(C)c(OCCO)c(C)c3)nc2c1 | 260 to 261 °C

Row | Compound | melting point
26 | CC1OC(=O)C(c2cccc(C(F)(F)F)c2)=C1O (centres undefined) | 175 °C
27 | Cc1ccc(-n2c(=O)n(OCc3ccccc3)c(=O)c3cc(F)c(Cl)nc32)cc1 | 218 to 219 °C
28 | O=C1Nc2cccnc2N(CCCCCCN2CCCCC2)c2ccccc21 | 131 to 132 °C
29 | COc1ccc(/C=C(\C#N)c2cccc(Br)c2)cc1OC1CCCC1 | 90 to 91.5 °C
30 | c1cnn(Cc2ccc3c(c2)-c2[nH]nc(-c4ccsc4)c2C3)n1 | 217 to 219 °C
31 | O=C(O)c1ccc(-c2cc(=O)n(-c3ccccc3)s2)cc1 | 260 to 261 °C
32 | Cc1c(O)c(=O)ccn1CC(C)C | 170 to 171 °C
33 | O=C(Cc1c[nH]c2ccccc12)Nc1ccccc1C(=O)Nc1ccccc1 | 235 to 236 °C
34 | CCCCCCCCC(SCCCCCC)C(=O)Nc1c(OC)ccc2ncccc12 (centres undefined) | 88 to 89 °C
35 | CCCc1c(SC(=S)N(CC)CC)c2cc(Br)ccc2oc1=O | 135 to 137 °C
36 | Cc1c(/C=C2\COc3ccc4ccccc4c3C2=O)ncn1C(c1ccccc1)(c1ccccc1)c1ccccc1 | 164 to 167 °C
37 | O=C(CCc1nc(-c2ccccn2)no1)NC1CCN(Cc2ccc(F)c(Cl)c2)CC1 | 150 °C
38 | O=C1N(CCN2CCC(c3noc4cc(F)ccc34)CC2)CCN1Cc1ccccc1 | 126 to 130 °C
39 | CCC(CC)c1ccc(Cl)c2nc(Nc3ccc(OC)nc3OC)n(CCCCO)c12 | 116 to 118 °C
40 | O=C(NC(C(=O)O)C1CC(Cl)=NO1)OCC1c2ccccc2-c2ccccc21 (centres undefined) | 175 to 176 °C
41 | Cc1nc(NCCc2ccccc2)c2c(n1)N(c1ccccc1)C(=O)C2 | 81 to 84 °C
42 | CC(C)(C)C1=CC(=Nc2ccc(CC#N)cc2)C=C(C(C)(C)C)C1=O | 126 to 128 °C
43 | COC[C@@H](NS(=O)(=O)c1ccc2c(Cl)cnc(Cl)c2c1)C(=O)OC(C)(C)C | 135 to 137 °C
44 | CC12CCC(=O)N1CC(=O)N2 (centres undefined) | 187 to 189 °C
45 | CCCC(=NOCC)C1=C(O)CC(C2(C)CC(C(C)C)=NO2)CC1=O (centres undefined) | 85 °C
46 | FC(F)(F)c1ccn(-c2cc(-c3ccc4c(c3)OCO4)nc3ccccc23)n1 | 98 to 100 °C
47 | COc1ccc(S(=O)(=O)N(Cc2ccccc2)c2c(C(=O)O)cnc3c2cnn3-c2ccccc2)cc1 | 108 to 110 °C
48 | COc1cc(NCCCO)c([N+](=O)[O-])cc1O | 144 °C
49 | CCCCN(Cc1ccc(-c2ccccc2-c2nnnn2C(c2ccccc2)(c2ccccc2)c2ccccc2)cc1)c1nc(C)cc(C)n1 | 131 to 133 °C
50 | O=C1c2cc(Cl)ccc2Cc2cccc(Cl)c21 | 160 to 165 °C

Row | Compound | melting point
51 | CC(c1oc2ccc(Br)cc2c(=O)c1-c1ccccc1)n1ncc2c(N)ncnc21 (centres undefined) | 239 to 240 °C
52 | COc1ccccc1Cc1ccc(=O)[nH]n1 | 142 to 143 °C
53 | CC(C)NCC(O)COc1cccc2c1CC(=O)N2 (centres undefined) | 173 to 175 °C
54 | Cc1cc(C)cc(Nc2cccc3c2OC(CN)C3)c1 (centres undefined) | > 250 °C
55 | O=C(O)CCN1C(=O)c2cccc(NC(=O)c3ccc(Cl)s3)c2C1=O | 194 °C
56 | COC(=O)c1ccc(-c2cc(C)c3[nH]c(=O)ccc3c2)cc1 | 293 °C
57 | O=C(C=Cc1ccc(N2CCOCC2)cc1)c1ccc2c(c1)CCCC2 | 138 to 140 °C
58 | COc1ccc(CC(=O)N2CCC3(CC2)Cc2ccccc2O3)cc1 | 87 to 88 °C
59 | COc1ccc2c(c1)CCC1=C2CCC2(C)C(=O)CC=C12 (centres undefined) | 111 to 113 °C
60 | Nc1ccc(S(=O)(=O)c2cc(-c3cccc(Cl)c3)nc(N3CCCC3)c2)cc1 | 260 to 261 °C
61 | CC1(C)C(C)(C)C1(Cl)c1ccc2c(c1)OCO2 | 110 to 112 °C
62 | Cc1ccccc1C=C1CCn2c1nc1ccc(CO)cc1c2=O | 222 to 224 °C
63 | N#Cc1c(Cl)c(C(F)(F)F)n(CCl)c1-c1ccc(Cl)cc1 | 107 to 108 °C
64 | COc1cccc(CCN2C(=O)COc3ccc(C=C4SC(=S)NC4=O)cc32)c1 | 233 to 236 °C
65 | CC(=O)Nc1cc(N(C)C)c([N+](=O)[O-])cc1C(=O)O | 230 to 255 °C
66 | O=C(O)c1cn(-c2cnsn2)c2c(F)c(F)c(F)cc2c1=O | 205 to 207 °C
67 | N#Cc1nc(Cl)sc1Cl | 56.5 to 57 °C
68 | COc1cc2c(cc1Nc1ncc(Cl)c(Nc3ccccc3OCC#N)n1)CCOC(=O)N2C | 245 to 247 °C
69 | COc1ccc(CNc2cc(C(c3cc(F)ccc3F)S(=O)(=O)c3ccc(F)cc3)c(Cl)cn2)cc1OC (centres undefined) | 158 to 159 °C
70 | O=c1cc(O)nc2sc(CCC3CCCCC3)nn12 | 215 to 219 °C
71 | CCOC(=O)c1cnc2nn(CC)cc2c1OCC | 111 to 113 °C
72 | CCOC(=O)c1cnc2n(c1=O)C(C)CCC2=NNc1ccccc1 (centres undefined) | 138 to 139 °C
73 | Nc1ccc(OCC(COc2ccc(N)cc2)(COc2ccc(N)cc2)COc2ccc(N)cc2)cc1 | 210 to 211 °C
74 | CC1CN2C(=NC1=O)CCC2C (centres undefined) | 150 to 152 °C
75 | C[C@@H](CN1CCc2ccc3c(c21)OCCO3)NC(=O)OC(C)(C)C | 130 to 132 °C

Row | Compound | melting point
76 | COc1ccc(OC)c(C=CC(=O)C2C(=O)OC(=O)C(C(C)=O)=C2O)c1 (centres undefined) | 194 to 195 °C
77 | Nc1n[nH]c2cc(CN3CCN(Cc4cc5ccc(Cl)cc5s4)CC3=O)ccc12 | 246 to 248 °C
78 | O=C(NO)c1ccc(CNC(=O)c2[nH]c(-c3ccccc3)cc2-c2ccc(F)cc2)o1 | 152 to 153 °C
79 | COC(=O)c1cn(-c2ccc(Oc3ccc(C)cc3O)cc2)nn1 | 148 to 151 °C
80 | Oc1ccc(-c2ccc3cc(O)nc-3o2)cc1 | > 300 °C
81 | CN(C)Nc1c([N+](=O)[O-])cc(C(F)(F)F)c(Cl)c1[N+](=O)[O-] | 130 to 131 °C
82 | O=C(Nc1ccc2c(c1)nc1n2CCCC1)c1cc2cccnc2n1Cc1ccccc1 | 233 to 235 °C
83 | O=S(=O)(c1nc2c3ccccc3c3ccccc3c2[nH]1)C(F)(F)C(F)F | 254 to 256 °C
84 | Cc1cccc(NC(=O)CN2CCN(c3ncccc3C#N)CC2)c1C | 124 to 126 °C
85 | CCOC(=O)N1CCN(Cc2nc3cccnc3n2CCO)CC1 | 117 °C
86 | COc1ccc2nc(NC(=O)C(CC3CCCC3)c3ccc(S(=O)(=O)NCc4ccccc4F)cc3)sc2n1 (centres undefined) | 238 to 240 °C
87 | CCCCCCCC(=O)NCc1ccccc1 | 76 to 78 °C
88 | Nc1cc(Br)nc(Br)c1[N+](=O)[O-] | 140 °C
89 | COC1(c2cc(F)cc(OCc3ccc(-n4ccnc4C)cc3)c2)CCOCC1 | 168 °C
90 | O=C(O)COc1ccccc1N1CCN(c2ccncc2)CC1 | 294 to 296 °C
91 | O=C(O)[C@@H]1CCCN1S(=O)(=O)CCS | 99 to 101 °C
92 | CCCn1nc2c(N)nc3ccccc3c2c1CC(C)(C)C(N)=O | 224 to 225 °C
93 | O=C(c1ccc(NS(=O)(=O)c2ccccc2)cc1)N1CCCCc2ccccc21 | 178 to 182 °C
94 | Sc1cc(Cl)nc2ncnn12 | > 300 °C
95 | CCn1c(=O)n(OCc2ccccc2)c(=O)c2cc(F)c(N3CCC(NC(=O)OC(C)(C)C)C3)nc21 (centres undefined) | 157 to 159 °C
96 | CC(=O)OC1CC2(C)C(=O)CCC2C2CC=C3CC(O)CCC3(C)C12 (centres undefined) | 155 to 156 °C
97 | CCCCCCCCC#Cc1c(F)ccc(C(=O)O)c1F | 117 °C
98 | COCCc1nc2c(N)nc3ccccc3c2n1CCCNC(=O)N1CCOCC1 | 194 to 196 °C
99 | O=C(CCl)Nc1ccc2c(c1NC(=O)c1ccc(C(F)(F)F)cc1)C(=O)c1ccccc1C2=O | 203 to 204 °C
